Data as given in patent publication US20260151538A1, “DIFFERENTIATION AND REPROGRAMMING OF CHONDROCYTE” (ADA Forsyth Institute, Inc., priority 2022, published 2026).

Key:
GATA3 = conditions: literature reports (Attakpa 2009; Gocke 2009; Ahmad 2017); cited from earlier work
ATDC5 cells = experiment: ATDC5 micro-mass culture chondrogenesis, alcian blue staining; format: cell-based, mouse; conditions: ATDC5 cells in micro-mass culture; DHA at 0, 1, 5, 25 and 125 μM; quantified with ImageJ
Excerpt: To further investigate the beneficial effects of GATA3 stimulation on cartilage regeneration, the inventors examined GATA3 activators in chondrogenesis. Using the ATDC5 cell line derived from mouse teratocarcinoma (undifferentiated embryonal carcinoma that can give rise to all three germ layers), the inventors first cultured the cells in micro-mass followed by differentiation into chondrocytes. Next, the inventors testes if the addition of GATA3 activators to the micro-mass culture could promote chondrogenesis. Staining was then performed to detect chondrogenic cells, which were positive for alcian blue. Imaging and quantitative analysis was then carried out to determine the percentage of the positively stained area using ImageJ.

N#CC(=C(/N)Sc1ccccc1N)/C(C#N)=C(\N)Sc1ccccc1N [U0126]
GATA3 expression (transcripts and proteins) (GATA3): enhance GATA3 expression

Cc1cccc(Nc2cc(Cl)nc(SCC(=O)O)n2)c1C [Pirinixic acid]
chondrocyte differentiation / chondrogenesis (percentage of alcian blue positively stained area) (ATDC5 cells): substantial stimulated effects on chondrogenesis | GATA3 expression (transcripts and proteins) (GATA3): enhance GATA3 expression

Nc1nc2c(cnn2CCc2ccccc2)c2nc(-c3ccco3)nn12 [SCH 58261]
GATA3 expression (transcripts and proteins) (GATA3): enhance GATA3 expression

Cc1ccc(C)c(OCCCC(C)(C)C(=O)O)c1 [Gemfibrozil]
chondrocyte differentiation / chondrogenesis (percentage of alcian blue positively stained area) (ATDC5 cells): substantial stimulated effects on chondrogenesis | GATA3 expression (transcripts and proteins) (GATA3): enhance GATA3 expression

Oc1ccc(-c2nc(-c3ccncc3)c(-c3ccc(F)cc3)[nH]2)cc1 [SB202190]
chondrocyte differentiation / chondrogenesis (percentage of alcian blue positively stained area) (ATDC5 cells): substantial stimulated effects on chondrogenesis | GATA3 expression (transcripts and proteins) (GATA3): enhance GATA3 expression
